The results in this text go back to ChEMBL document CHEMBL1240418, “Carbonic anhydrase inhibitors. Regioselective synthesis of novel 1-substituted 1,4-dihydro-4-oxo-3-pyridinesulfonamides and their inhibition of the human cytosolic isozymes I and II and transmembrane cancer-associated isozymes IX and XII” (Eur J Med Chem, 2010).

The test concerns the target Carbonic anhydrase 9 (Homo sapiens, UniProt Q16790).
The term Ki denotes a measure of affinity in units of concentration, obtained from inhibition or displacement. Read a low Ki as a stronger hold on the target. In the case of `NS(=O)(=O)c1cn(-c2ccc([N+](=O)[O-])cc2[N+](=O)[O-])ccc1=O`, the Ki stood at 5.8 nM. This counts as single-digit nanomolar.
`NS(=O)(=O)c1cn(-c2ccc([N+](=O)[O-])c3[n-][o+]nc23)ccc1=O` returned a Ki of 6.9 nM.
Under `NS(=O)(=O)c1cn(CC(=O)c2ccc3ccccc3c2)ccc1=O` stands 118 nM; under `Cn1ccc(=O)c(S(N)(=O)=O)c1`, 7.1 nM; under `NS(=O)(=O)c1cn(CC(=O)c2ccc(Cl)cc2)ccc1=O`, 11.8 nM.
`NS(=O)(=O)c1cn(CC(=O)c2cccc([N+](=O)[O-])c2)ccc1=O` came in with a Ki of 11.9 nM.
`NS(=O)(=O)c1cn(CC(=O)c2ccc(F)cc2)ccc1=O` yielded a Ki of 9.7 nM.
The value for `NC(=O)Cn1ccc(=O)c(S(N)(=O)=O)c1` was 64 nM; that for `NS(=O)(=O)c1cn(CC(=O)c2ccc(Cl)c(Cl)c2)ccc1=O` was 8.6 nM.
Under `COC(=O)Nc1ccccc1C(=O)n1ccc(=O)c(S(N)(=O)=O)c1` stands 96 nM.
The compound `NS(=O)(=O)c1cn(Cc2ccccc2)ccc1=O` had a Ki of 7.8 nM.
